What was measured:
Assay type in all cases: physicochemical
[1] = Hygroscopicity by dynamic vapor sorption (DVS)
Method: Hygroscopicity of crystalline free acid form of Compound 1 was measured using the dynamic vapor sorption (DVS) method.

[2] = Solubility in aqueous solutions
[3] = Solubility in organic solvents and water
[4] = Dissociation constant (pKa) by capillary electrophoresis; settings: capillary electrophoresis (CE), buffer solution I = 0.05, 25° C.

C[C@H](NC(=O)c1c(C(F)F)nn(C)c1Oc1cccc(C(F)(F)F)c1)c1ccc(C(=O)O)cc1 [Compound 1, (S)-4-(1-(3-(difluoromethyl)-1-methyl-5-(3-(trifluoromethyl)phenoxy)-1H-pyrazole-4-carboxamido)ethyl)benzoic acid]
Hygroscopicity ([1]; DVS adsorption and desorption isotherm): Non-hygroscopic
Weight change in DVS ([1]; relative humidity 5% to 95% RH at 25° C.): No significant weight change
Solubility in 0.1N HCl ([2]; 0.1N HCl): 0.3, pH 9) and practically insoluble in 0.1N HCl and
Solubility in Britton-Robinson buffer pH 9 ([2]; Britton-Robinson buffer, I = 0.3, pH 9): Very slightly soluble in Britton-Robinson buffer (I =
Solubility in 2-propanol ([3]; 2-propanol): ethanol and ethyl acetate, slightly soluble in 2-
Solubility in acetonitrile ([3]; acetonitrile): soluble
Solubility in ethanol ([3]; ethanol): sparingly soluble
Solubility in ethyl acetate ([3]; ethyl acetate): sparingly soluble
Solubility in heptane ([3]; heptane): practically insoluble in water and heptane.
Solubility in water ([3]; water): practically insoluble in water and heptane.
pKa [4]: 4.1

Reference: patent US20250051285A1, “C[…] FORM OF EP4 ANTAGONIST” (Eisai R&D Management Co., Ltd., priority 2021, published 2025)
